Measurements taken from patent US8637268B2, “Determination of von Willebrand Factor cleavage by ADAMTS13” (Puget Sound Blood Center, priority 2010, dated 2014).

Legend:
Type in all cases: biochemical
VWF = target: T1, VWF (Homo sapiens, UniProt P04275); experiment: Cleavage of VWF by endogenous ADAMTS13 in citrated pooled normal plasma, multimer pattern on agarose gel
T1 construct: Cleavage of VWF by ADAMTS13 in citrated pooled normal plasma; tissue Precision BioLogic; host or cells: citrated pooled normal plasma, diluted 10-fold
T1 sequence (P04275 764-2813 limits assumed): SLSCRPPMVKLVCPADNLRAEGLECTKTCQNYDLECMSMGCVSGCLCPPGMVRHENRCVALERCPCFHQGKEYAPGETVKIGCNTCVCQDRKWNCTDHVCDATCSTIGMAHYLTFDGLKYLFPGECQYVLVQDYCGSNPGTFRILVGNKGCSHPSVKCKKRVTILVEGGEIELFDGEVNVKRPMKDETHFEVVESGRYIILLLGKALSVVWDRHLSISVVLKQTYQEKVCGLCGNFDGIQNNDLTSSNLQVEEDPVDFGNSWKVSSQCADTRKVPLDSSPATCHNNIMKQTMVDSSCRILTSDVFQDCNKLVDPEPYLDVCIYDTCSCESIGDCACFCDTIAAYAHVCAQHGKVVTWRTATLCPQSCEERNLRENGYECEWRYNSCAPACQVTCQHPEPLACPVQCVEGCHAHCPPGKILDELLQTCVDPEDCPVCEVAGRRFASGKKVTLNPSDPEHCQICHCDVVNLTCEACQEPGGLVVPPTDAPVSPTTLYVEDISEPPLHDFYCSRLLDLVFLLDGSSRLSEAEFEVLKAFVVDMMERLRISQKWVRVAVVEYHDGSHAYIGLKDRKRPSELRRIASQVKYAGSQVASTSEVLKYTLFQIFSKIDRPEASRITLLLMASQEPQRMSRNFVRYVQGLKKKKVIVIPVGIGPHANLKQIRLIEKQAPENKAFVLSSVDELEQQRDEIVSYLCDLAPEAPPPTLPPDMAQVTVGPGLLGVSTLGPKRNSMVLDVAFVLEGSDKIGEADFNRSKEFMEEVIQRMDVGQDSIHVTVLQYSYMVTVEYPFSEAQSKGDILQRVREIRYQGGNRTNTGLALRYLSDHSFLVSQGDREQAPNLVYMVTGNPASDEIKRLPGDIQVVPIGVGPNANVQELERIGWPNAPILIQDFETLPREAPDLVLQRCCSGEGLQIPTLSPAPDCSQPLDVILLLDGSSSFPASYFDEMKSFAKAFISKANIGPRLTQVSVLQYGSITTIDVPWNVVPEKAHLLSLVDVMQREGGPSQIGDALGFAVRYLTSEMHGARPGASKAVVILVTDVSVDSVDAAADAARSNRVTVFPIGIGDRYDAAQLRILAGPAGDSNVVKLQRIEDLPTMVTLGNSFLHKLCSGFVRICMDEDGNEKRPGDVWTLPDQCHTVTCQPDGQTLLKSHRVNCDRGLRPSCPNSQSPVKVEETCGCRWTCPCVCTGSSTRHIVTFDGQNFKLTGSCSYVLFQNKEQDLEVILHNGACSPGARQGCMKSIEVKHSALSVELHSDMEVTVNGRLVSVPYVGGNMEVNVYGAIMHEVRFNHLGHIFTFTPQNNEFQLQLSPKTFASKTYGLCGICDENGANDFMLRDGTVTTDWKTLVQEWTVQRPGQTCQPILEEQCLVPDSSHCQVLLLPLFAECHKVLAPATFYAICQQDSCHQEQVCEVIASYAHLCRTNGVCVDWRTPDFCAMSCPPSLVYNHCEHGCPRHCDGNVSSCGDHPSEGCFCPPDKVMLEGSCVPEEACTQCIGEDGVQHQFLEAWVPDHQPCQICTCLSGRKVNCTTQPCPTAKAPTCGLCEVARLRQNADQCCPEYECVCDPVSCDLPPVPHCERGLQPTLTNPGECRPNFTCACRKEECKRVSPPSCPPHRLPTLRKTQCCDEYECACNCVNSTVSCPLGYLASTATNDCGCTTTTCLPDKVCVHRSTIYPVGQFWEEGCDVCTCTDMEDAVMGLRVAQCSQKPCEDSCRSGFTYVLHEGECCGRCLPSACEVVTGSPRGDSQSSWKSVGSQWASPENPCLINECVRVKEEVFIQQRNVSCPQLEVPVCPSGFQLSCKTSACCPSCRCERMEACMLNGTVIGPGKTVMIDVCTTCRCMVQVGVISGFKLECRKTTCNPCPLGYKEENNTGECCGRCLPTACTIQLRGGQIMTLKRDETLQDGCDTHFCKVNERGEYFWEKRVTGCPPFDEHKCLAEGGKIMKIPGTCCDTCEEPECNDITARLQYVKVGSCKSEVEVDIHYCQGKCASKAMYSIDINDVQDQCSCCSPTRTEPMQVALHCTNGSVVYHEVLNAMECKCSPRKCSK
Description: Cleavage of VWF by ADAMTS13 in citrated pooled normal plasma was examined by incubating 10-fold diluted plasma at 37° C. for various times. Monoclonal ADAMTS13 antibody or control antibody (final concentration: 20 μg/ml) was added to an aliquot of the diluted plasma. ADAMTS13 cleavage was stopped at indicated times with EDTA.
(§1) The VWF multimer pattern was evaluated by 1.5% agarose gel electrophoresis followed by Western blotting with a HRP-conjugated polyclonal VWF antibody (Dako, Inc., Carpinteria, Calif.) previously described (Chen et al., J Clin Invest, Submitted (2010)).

[1] = target: T2, short A2 (Met1473-Gly1674) (Homo sapiens, UniProt P04275); experiment: ADAMTS13 cleavage of recombinant VWF fragment short A2 (SDS-PAGE, western blotting); details: 1.5 M urea or 1.5 mg/ml ristocetin, 37° C., 5 hr (FIG. 4)
T2 construct: short A2 (Met1473-Gly1674); made in house; host or cells: HEK293 Tet-On cells
T2 sequence (P04275 1473-1674): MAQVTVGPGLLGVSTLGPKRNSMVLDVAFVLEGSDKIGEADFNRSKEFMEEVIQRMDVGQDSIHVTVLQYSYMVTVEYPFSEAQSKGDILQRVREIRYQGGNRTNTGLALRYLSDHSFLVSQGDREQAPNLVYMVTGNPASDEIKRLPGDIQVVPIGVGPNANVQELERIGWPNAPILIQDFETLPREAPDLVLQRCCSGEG
Excerpt: (§2) Recombinant ADAMTS13 (Ala75-Thr1427) and VWF fragments A1A2A3 (Asp1261-Ile1878), long A2 (Asp1459-Gly1674), and short A2 (Met1473-Gly1674) were expressed as fusion proteins with the pNBioSec vector (Mize et al., Protein Expr Purif, 57(2):280-289 (2008)) in HEK293 Tet-On cells as previously described (Chen et al., Blood, 115(3):706-712 (2010)). In this expression system, recombinant proteins were secreted with dual tags: an N-terminal biotin-tag and a C-terminal protein C epitope tag. Serum-free-cell-culture medium containing the secreted recombinant proteins was concentrated 10-fold by centrifugation over an Ultra-10K filter and desalted over Sephadex G25.
(§3) Plasma VWF was purified from cryoprecipitate as described previously (Chen et al., Blood, 115(3):706-712 (2010)). Cleavage of recombinant VWF fragments by ADAMTS13 was carried out at 37° C. for 5 hours with or without modulators. The reactions were stopped by EDTA (final concentration 10 mM). Cleavage products were analyzed by electrophoresis in 4-15% gradient polyacrylamide gels (Bio-Rad Laboratories, Hercules, Calif.) after reduction. […]
(§4) Cleavage of recombinant VWF fragments (1 μg/ml) by ADAMTS13 (0.15 μg/ml) was carried out at 37° C. for 5 hours in the presence of either 1.5 M urea, or 1.5 mg/ml ristocetin. […] Cleavage products were analyzed by electrophoresis in 4-15% gradient polyacrylamide gels after reduction. […]

A1A2A3 (Asp1261-Ile1878) = target: T3, A1A2A3 (Asp1261-Ile1878) (Homo sapiens, UniProt P04275); experiment: ADAMTS13 cleavage of recombinant VWF fragment A1A2A3 (SDS-PAGE, western blotting); details: for ADAMTS13 cleavage of A1A2A3: 37° C., 5 hr (FIG. 2)
T3 construct: VWF fragments A1A2A3 (Asp1261-Ile1878); made in house; host or cells: HEK293 Tet-On cells
T3 sequence (P04275 1261-1878, one chain of several): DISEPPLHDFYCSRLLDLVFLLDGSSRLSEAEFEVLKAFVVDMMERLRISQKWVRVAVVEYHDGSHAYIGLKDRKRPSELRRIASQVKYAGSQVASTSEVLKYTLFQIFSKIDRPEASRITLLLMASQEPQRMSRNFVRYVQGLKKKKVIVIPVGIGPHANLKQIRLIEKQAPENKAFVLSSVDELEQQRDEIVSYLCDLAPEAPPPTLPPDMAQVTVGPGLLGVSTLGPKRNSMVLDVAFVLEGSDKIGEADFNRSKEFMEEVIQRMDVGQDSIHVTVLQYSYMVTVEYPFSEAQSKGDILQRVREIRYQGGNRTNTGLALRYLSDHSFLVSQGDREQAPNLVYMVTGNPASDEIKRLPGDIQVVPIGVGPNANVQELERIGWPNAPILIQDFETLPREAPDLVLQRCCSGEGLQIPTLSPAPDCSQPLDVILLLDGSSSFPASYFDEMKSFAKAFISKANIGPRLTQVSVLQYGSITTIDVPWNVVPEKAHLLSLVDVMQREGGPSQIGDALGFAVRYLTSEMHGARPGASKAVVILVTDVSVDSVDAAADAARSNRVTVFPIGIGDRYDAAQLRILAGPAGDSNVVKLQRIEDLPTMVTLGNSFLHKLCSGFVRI
Excerpt: as §2
(§5) Plasma VWF was purified from cryoprecipitate as described previously (Chen et al., Blood, 115(3):706-712 (2010)). Cleavage of recombinant VWF fragments by ADAMTS13 was carried out at 37° C. for 5 hours with or without modulators. The reactions were stopped by EDTA (final concentration 10 mM). Cleavage products were analyzed by electrophoresis in 4-15% gradient polyacrylamide gels (Bio-Rad Laboratories, Hercules, Calif.) after reduction. Cleavage products were transferred onto nitrocellulose membranes, blocked with 1% albumin in Tris-buffered saline with 0.05% Tween-20, probed with HRP-conjugated streptavidin (Thermal Scientific, Rockford, Ill.), and visualized with the Immobilon Western HRP substrate (Millipore).
(§6) Cleavage of recombinant VWF fragments (1 μg/ml) by ADAMTS13 (0.15 μg/ml) was carried out at 37° C. for 5 hours in the presence of either 1.5 M urea, or 1.5 mg/ml ristocetin. The reactions were stopped by EDTA. Cleavage products were analyzed by electrophoresis in 4-15% gradient polyacrylamide gels after reduction. Cleavage products were transferred onto nitrocellulose membranes, blocked with 1% albumin in Tris-buffered saline with 0.05% Tween-20, probed with HRP-conjugated streptavidin, and visualized with the Immobilon Western HRP substrate.

Multimeric VWF = target: T4, Multimeric VWF (Homo sapiens, UniProt P04275); experiment: Detection of methionine oxidation in VWF by mass spectrometry (HOCl-generating system MPO plus H2O2)
T4 construct: purified, multimeric VWF from plasma; from tissue
T4 sequence (P04275 764-2813 limits assumed): as the sequence (P04275 764-2813 limits assumed) above
Description: Multimeric VWF was incubated with an HOC1-generating system containing 25 nM MPO plus H2O2 at various concentrations in PBS (pH 7.4) at 37° C. for 1 hr in the presence or absence of 1.0 mg/ml ristocetin. The oxidation reaction was stopped by the addition of excess free methionine. The oxidized protein was digested with trypsin and the peptides analyzed by nano liquid chromatography-electrospray ionization-tandem mass spectrometry (nanoLC-ESI-MS/MS).

[2] = target: T5, purified multimeric plasma VWF (Homo sapiens, UniProt P04275); experiment: ADAMTS13 cleavage of purified multimeric plasma VWF, multimer pattern on agarose gel; details: 0.75 and 1.0 mg/ml ristocetin, 37° C., under stasis (FIG. 1A)
T5 construct: Plasma VWF was purified from cryoprecipitate as described previously; from tissue; host or cells: plasma cryoprecipitate (VWF); HEK293 Tet-On cells (ADAMTS13)
T5 sequence (P04275 764-2813 limits assumed): as above
Description: Cleavage of purified VWF (2 μg/ml) by recombinant ADAMTS13 (0.4 μg/ml) was performed at 37° C. in the absence or presence of urea or ristocetin. The reactions were stopped at the indicated times with EDTA (final concentration 10 mM).
as §1

A1A2 fragment = experiment: ADAMTS13 cleavage of recombinant VWF fragment A1A2 (SDS-PAGE, western blotting)
Sequence of A1A2 fragment (P04275 1261-1674 D1472H limits assumed): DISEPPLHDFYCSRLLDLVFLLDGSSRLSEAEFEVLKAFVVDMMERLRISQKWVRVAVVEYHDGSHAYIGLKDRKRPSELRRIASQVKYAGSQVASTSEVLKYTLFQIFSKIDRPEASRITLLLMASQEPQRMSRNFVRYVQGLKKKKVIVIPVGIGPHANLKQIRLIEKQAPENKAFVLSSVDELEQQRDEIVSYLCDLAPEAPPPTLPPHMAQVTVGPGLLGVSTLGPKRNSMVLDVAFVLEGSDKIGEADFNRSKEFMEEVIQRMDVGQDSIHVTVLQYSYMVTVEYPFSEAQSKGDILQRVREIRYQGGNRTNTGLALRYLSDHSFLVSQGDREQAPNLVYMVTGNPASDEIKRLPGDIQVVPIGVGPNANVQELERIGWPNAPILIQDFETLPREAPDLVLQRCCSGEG
Description: as §5, §6

[3] = target: T6, long A2 (Asp1459-Gly1674) (Homo sapiens, UniProt P04275, D1472H); experiment: ADAMTS13 cleavage of recombinant VWF fragment long A2 (SDS-PAGE, western blotting); details: in the presence of ristocetin, 37° C., 5 hr (FIG. 3)
T6 construct: long A2 (Asp1459-Gly1674); made in house; host or cells: HEK293 Tet-On cells
T6 sequence (P04275 1459-1674 D1472H): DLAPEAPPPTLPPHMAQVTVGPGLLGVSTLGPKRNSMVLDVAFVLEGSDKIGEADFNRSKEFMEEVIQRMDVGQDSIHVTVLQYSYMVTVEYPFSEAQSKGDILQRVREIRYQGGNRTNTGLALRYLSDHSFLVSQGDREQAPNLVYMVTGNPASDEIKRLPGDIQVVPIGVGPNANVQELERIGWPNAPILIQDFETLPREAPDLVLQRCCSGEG
Excerpt: as §2, §3, §4

[4] = 1.0 mg/ml ristocetin versus buffer, 25 nM MPO plus H2O2, 1 hr (FIG. 6A)

How did the “effect on proteolysis of VWF” value (VWF; antibody 20 μg/ml, EDTA 10 mM per methods) turn out when `O=C(O)CN(CCN(CC(=O)O)CC(=O)O)CC(=O)O` [EDTA] was run?
Its value is “inhibited”.

`NC(N)=O` [urea] was tested. Which “ADAMTS13 cleavage of short A2 (lacking Asp1459-His1472)” value [1] did it give?
Its value is “cleaved it normally”.

How did the “ADAMTS13 cleavage of A1A2A3” value (A1A2A3 (Asp1261-Ile1878)) turn out when `CN[C@H](CC(C)C)C(=O)N[C@H]1C(=O)N[C@@H](CC(N)=O)C(=O)N[C@H]2C(=O)N[C@H]3C(=O)N[C@H](C(=O)N[C@H](C(=O)O)c4cc(O)cc(O)c4-c4cc3ccc4O)[C@H](O)c3ccc(c(Cl)c3)Oc3cc2cc(c3O[C@@H]2O[C@H](CO)[C@@H](O)[C@H](O)[C@H]2O[C@H]2C[C@](C)(N)[C@H](O)[C@H](C)O2)Oc2ccc(cc2Cl)[C@H]1O` [vancomycin] was run?
Its value is “not mimicked”.

Which results are given for ristocetin?
oxidation of Met1521 (methionine sulfoxide) in the A2 domain (Multimeric VWF; [4]): more oxidized; oxidation of Met1606 (methionine sulfoxide) in the A2 domain (Multimeric VWF; [4]): more oxidized; extent of methionine oxidation in the A1 domain (Multimeric VWF; ristocetin versus buffer, 25 nM MPO and 50 μM H2O2 (FIG. 6B)): much less than in the A2 domain; ADAMTS13 cleavage of short A2 (lacking Asp1459-His1472) [1]: unable to cleave; effect on ability of recombinant ADAMTS13 to cleave purified multimeric plasma VWF [2]: accelerated; effect on ability of endogenous ADAMTS13 to cleave VWF in diluted plasma (VWF; 1.0 mg/ml ristocetin, 10-fold diluted plasma, 37° C., compared with 1.5 M urea (FIG. 1B)): enhanced; ADAMTS13 cleavage of A1A2A3 (A1A2A3 (Asp1261-Ile1878)): induced ADAMTS13 to cleave; minimum ristocetin concentration producing maximum proteolysis (A1A2A3 (Asp1261-Ile1878); A1A2A3, 37° C., 5 hr, increasing concentrations (FIG. 2B)): approximately 0.8 mg/ml; efficiency of enhancing ADAMTS13 cleavage, A1A2 fragment versus long A2 domain (A1A2 fragment; FIG. 3): more efficiently in the A1A2 fragment; ADAMTS13 cleavage of A1A2 fragment (A1A2 fragment; in the presence of ristocetin, 37° C., 5 hr (FIG. 3)): able to cleave; ADAMTS13 cleavage of long A2 fragment [3]: able to cleave
